From ChEMBL document CHEMBL3272295, “Drugs derived from cannabinoids. 5. delta6a,10a-Tetrahydrocannabinol and heterocyclic analogs containing aromatic side chains” (J Med Chem, 1976) come the findings set out here.

Data set [1] deals with Rattus norvegicus. Nature of the data set: Antihypertensive activity in spontaneously hypertensive rat model assessed as reduction in blood pressure at 1 mg/kg, po after 24 hrs. Type of data set: functional. Further details: scale not given: the % may be the effect or the level left.
For data set [2], the system named is Rattus norvegicus. Nature of the data set: Antihypertensive activity in spontaneously hypertensive rat model assessed as reduction in blood pressure at 3 mg/kg, po after 3 hrs. Type of data set: functional. Further details: scale not given: the % may be the effect or the level left.
The test system of data set [3] is Rattus norvegicus. Nature of the data set: Antianxiety activity in Long-Evans rat assessed as reduction in motor activity at 20 mg/kg, po after 2 hrs relative to vehicle-treated control. Type of data set: functional. Further details: scale not given: the % may be the effect or the level left.
The nature of data set [4]: Acute toxicity in po dosed mouse. Type of data set: organism-based. The conditions noted are these: in vivo.
Data set [5] deals with Rattus norvegicus. The data set is described as follows: Antihypertensive activity in spontaneously hypertensive rat model assessed as reduction in blood pressure at 1 mg/kg, po after 3 hrs. In kind it is functional. Further details: scale not given: the % may be the effect or the level left.
In data set [6] the test system is Rattus norvegicus. The data set is described as follows: Antihypertensive activity in spontaneously hypertensive rat model assessed as reduction in blood pressure at 3 mg/kg, po after 24 hrs. In kind it is functional. Further details: scale not given: the % may be the effect or the level left.
The subject of data set [7] is Mus musculus. The data set is described as follows: Analgesic activity in mouse assessed as inhibition of acetic acid-induced writhing at 10 mg/kg, po administered 30 mins prior to acetic acid challenge measured after 5 mins for 20 mins. Type of data set: functional.
The subject of a further data set is Canis familiaris. Nature of the data set: Antianxiety activity in po dosed dog assessed as ataxia administered as single dose measured up to 24 hrs. Type of data set: functional. As to conditions: Canis lupus familiaris, read-out: MED.
Data set [8] relates to Mus musculus. Nature of the data set: Antianxiety activity in albino BALB/cJ mouse assessed as reduction in footshock-induced fighting behavior at 10 mg/kg, po after 30 to 90 mins. Type of data set: functional. Further details: scale not given: the % may be the effect or the level left.
Data set [9] relates to Rattus norvegicus. Nature of the data set: Increase in methamphetamine-induced hyperactivity in rat at 5 mg/kg, po administered prior to methamphetamine challenge relative to vehicle-treated control. In kind it is functional.
The subject of data set [10] is Rattus norvegicus. Nature of the data set: Antianxiety activity in Long-Evans rat assessed as reduction in motor activity at 10 mg/kg, po after 2 hrs relative to vehicle-treated control. In kind it is functional. Further details: scale not given: the % may be the effect or the level left.
The test system of data set [11] is Rattus norvegicus. Nature of the data set: Antisecretory activity in Sprague-Dawley rat assessed as decrease in volume at 50 mg/kg, po administered 30 mins prior to pylorus ligation measured after 4 hrs relative to control. Type of data set: functional. Further details: scale not given: the % may be the effect or the level left.
Data set [12] deals with Rattus norvegicus. Nature of the data set: Antisecretory activity in Sprague-Dawley rat assessed as decrease in pepsin output at 50 mg/kg, po administered 30 mins prior to pylorus ligation measured after 4 hrs relative to control. In kind it is functional. Further details: scale not given: the % may be the effect or the level left.
The species entered for data set [13] is Rattus norvegicus. The data set is described as follows: animal or person. In kind it is functional. As to conditions: Charles River, route oral.
Description: Antidiarrheal activity in Charles River rat assessed as inhibition of castor oil-induced diarrhea by measuring protected animals at 0.5 mg/kg, po administered 1 hr prior to castor oil challenge measured after 1 hr relative to vehicle-treated control
Data set [14] relates to Rattus norvegicus. The data set is described as follows: Antisecretory activity in Sprague-Dawley rat assessed as decrease in acidity at 50 mg/kg, po administered 30 mins prior to pylorus ligation measured after 4 hrs relative to control. In kind it is functional. Further details: scale not given: the % may be the effect or the level left.
For data set [15], the system named is Rattus norvegicus. The data set is described as follows: Antianxiety activity in Long-Evans rat assessed as reduction in motor activity at 5 mg/kg, po after 2 hrs relative to vehicle-treated control. In kind it is functional. Further details: scale not given: the % may be the effect or the level left.
For data set [16], the system named is Rattus norvegicus. Nature of the data set: Antipsychotic activity in rat assessed as reduction of methamphetamine-induced hyperactivity at 5 mg/kg, po administered prior to methamphetamine challenge relative to vehicle-treated control. In kind it is functional. Further details: scale not given: the % may be the effect or the level left.
The test system of a further data set is Rhesus monkey. The data set is described as follows: Antianxiety activity in po dosed rhesus monkey assessed as antiagressive behavior measured every hour post dosing. Type of data set: functional. As to conditions: Macaca mulatta, read-out: MED.
Data set [17] relates to Felis catus. Nature of the data set: Hypnotic activity in cat assessed as increase in total sleep time at 0.5 mg/kg administered orally through diet measured for 12 hrs by EEG analysis. In kind it is functional. As to conditions: route oral.
In data set [18] the test system is Mus musculus. Nature of the data set: Analgesic activity in po dosed mouse assessed as inhibition of acetic acid-induced writhing administered 30 mins prior to acetic acid challenge measured after 5 mins for 20 mins. In kind it is functional.
The test system of data set [19] is Felis catus. The data set is described as follows: Hypnotic activity in cat assessed as increase in non-REM sleep time at 0.5 mg/kg administered orally through diet measured for 12 hrs by EEG analysis. Type of data set: functional. The conditions noted are these: route oral.
For data set [20], the system named is Rattus norvegicus. Nature of the data set: Increase in pepsin concentration in Sprague-Dawley rat at 50 mg/kg, po administered 30 mins prior to pylorus ligation measured after 4 hrs relative to control. Type of data set: functional.
Data set [21] concerns Rattus norvegicus. Nature of the data set: Antisecretory activity in Sprague-Dawley rat assessed as decrease in acid output at 50 mg/kg, po administered 30 mins prior to pylorus ligation measured after 4 hrs relative to control. Type of data set: functional. Further details: scale not given: the % may be the effect or the level left.
In data set [22] the test system is Rattus norvegicus. The data set is described as follows: Antipsychotic activity in rat assessed as reduction of methamphetamine-induced hyperactivity at 10 mg/kg, po administered prior to methamphetamine challenge relative to vehicle-treated control. In kind it is functional. Further details: scale not given: the % may be the effect or the level left.
Data set [23] relates to Rattus norvegicus. The data set is described as follows: Antianxiety activity in Long-Evans rat assessed as reduction in motor activity at 1 mg/kg, po after 2 hrs relative to vehicle-treated control. Further details: scale not given: the % may be the effect or the level left. In kind it is functional.
Data set [24] deals with Mus musculus. The data set is described as follows: Antianxiety activity in albino BALB/cJ mouse assessed as reduction in footshock-induced fighting behavior at 5 mg/kg, po after 30 to 90 mins. Type of data set: functional. Further details: scale not given: the % may be the effect or the level left.
Data set [25] deals with Rattus norvegicus. The data set is described as follows: Antianxiety activity in Long-Evans rat assessed as reduction in motor activity at 4 mg/kg, po after 2 hrs relative to vehicle-treated control. Type of data set: functional. Further details: scale not given: the % may be the effect or the level left.
The subject of data set [26] is Rattus norvegicus. The data set is described as follows: Analgesic activity in po dosed Sprague-Dawley rat after 15 to 90 mins by tail flick test. In kind it is functional.
In data set [27] the test system is Rattus norvegicus. The data set is described as follows: Antipsychotic activity in rat assessed as reduction of methamphetamine-induced hyperactivity at 2.5 mg/kg, po administered prior to methamphetamine challenge relative to vehicle-treated control. Further details: scale not given: the % may be the effect or the level left. Type of data set: functional.
Data set [28] relates to Rattus norvegicus. The data set is described as follows: Antidiarrheal activity in Charles River rat assessed as inhibition of castor oil-induced diarrhea by measuring protected animals at 0.2 mg/kg, po administered 1 hr prior to castor oil challenge measured after 1 hr relative to vehicle-treated control. In kind it is functional.
Data set [29] has as its system Rattus norvegicus. The data set is described as follows: Antidiarrheal activity in Charles River rat assessed as inhibition of castor oil-induced diarrhea by measuring protected animals at 0.05 mg/kg, po administered 1 hr prior to castor oil challenge measured after 1 hr relative to vehicle-treated control. Type of data set: functional.
Data set [30] has as its system Rattus norvegicus. The data set is described as follows: Antidiarrheal activity in Charles River rat assessed as inhibition of castor oil-induced diarrhea by measuring protected animals at 0.1 mg/kg, po administered 1 hr prior to castor oil challenge measured after 1 hr relative to vehicle-treated control. Type of data set: functional.

Counter-ions that a name gives are not always drawn.

`CC1CCC2=C(C1)c1c(O)cc(C(C)C(C)CCCc3ccc(F)cc3)cc1OC2(C)C` (stereo unspecified): the Activity in the data set with Rattus norvegicus [1] stood at 0%; with Rattus norvegicus [2], 33%; in the data set with Rattus norvegicus [3], 62%; in the data set with Rattus norvegicus [5], 9%; in the data set on Rattus norvegicus [6], 5%; with Mus musculus [8] it was 16%. Also, the results for the Activity in the data set on Rattus norvegicus [9] and with Rattus norvegicus [10] were 23% and 36%, respectively. The LD50 in [4] amounted to 500 mg/kg. Besides, in the data set on Mus musculus [7], the inhibition in vivo at 10 mg/kg amounted to 32%. The minimal effective dose with Canis familiaris came to 10 mg/kg.

`C#CCN1CCC2=C(C1)c1c(OC(=O)CCCN3CCCCC3)cc(C(C)CCCc3ccc(F)cc3)cc1OC2(C)C.Cl` (stereo unspecified): the Activity in the data set on Rattus norvegicus [11] is on record as 24.9%; in the data set on Rattus norvegicus [12] it was 1.9%; in the data set on Rattus norvegicus [14], 42.4%; with Rattus norvegicus [15], 87%; in the data set on Rattus norvegicus [16] it was 62%; in the data set on Mus musculus [8] it was 23%. For the same molecule, the Activity was 32% in the data set on Rattus norvegicus [20] and 56.1% in the data set on Rattus norvegicus [21]. The molecule also registered an inhibition in vivo at 0.5 mg/kg in the data set filed under Rattus norvegicus [13] of 40%. The same molecule returned an LD50 in data set [4] of 750 mg/kg. Also, the minimal effective dose with Rhesus monkey came out at 1 mg/kg; in the data set on Canis familiaris, 0.4 mg/kg. Further, the Time in the data set with Felis catus [17] was 47 min; with Felis catus [19] it was 121 min. In addition, the ED50 in the data set on Mus musculus [18] was 10.3 mg/kg.

With `CC1CCC2=C(C1)c1c(OC(=O)CCCN3CCOCC3)cc(C(C)CCCc3ccc(F)cc3)cc1OC2(C)C.Cl` (stereo unspecified), the Activity was 95% in the data set on Rattus norvegicus [22]; 68% in the data set with Rattus norvegicus [23]; 8% in the data set on Mus musculus [24]; 93% with Rattus norvegicus [25]; 86% in the data set on Rattus norvegicus [27]. In data set [4], this molecule came in with a 50% lethal dose (LD50) of no less than 1000 mg/kg. Further, the minimal effective dose in the data set on Rhesus monkey and with Canis familiaris was 10 mg/kg in each case. Further, the results for the ED50 with Rattus norvegicus [26] and in the data set on Mus musculus [18] were 1.7 mg/kg and 6 mg/kg, respectively. Besides, the Time was determined as 16 min in the data set with Felis catus [17] and 39 min with Felis catus [19].

Turning to `CCOC(=O)C1(c2ccccc2)CCN(CCC(C#N)(c2ccccc2)c2ccccc2)CC1` [DIPHENOXYLATE HYDROCHLORIDE], the inhibition in vivo at 0.2 mg/kg in the data set on Rattus norvegicus [28] came to 95%. In addition, the inhibition in vivo at 0.05 mg/kg in the data set with Rattus norvegicus [29] came out at 46%. The inhibition in vivo at 0.1 mg/kg in the data set with Rattus norvegicus [30] turned out to be 67%.
